Source: patent publication US7109354B2, “Thiophene amidines, compositions thereof, and methods of treating complement-mediated diseases and conditions” (3-Dimensional Pharmaceuticals, Inc., priority 2002, dated 2006)
Counter-ions that a name gives are not always drawn.

Molecular target: T1, Activated human C1s (Homo sapiens, UniProt P09871)
T1 construct: purchased Calbiochem (La Jolla, Calif.)
T1 sequence (P09871 438-688 limits assumed): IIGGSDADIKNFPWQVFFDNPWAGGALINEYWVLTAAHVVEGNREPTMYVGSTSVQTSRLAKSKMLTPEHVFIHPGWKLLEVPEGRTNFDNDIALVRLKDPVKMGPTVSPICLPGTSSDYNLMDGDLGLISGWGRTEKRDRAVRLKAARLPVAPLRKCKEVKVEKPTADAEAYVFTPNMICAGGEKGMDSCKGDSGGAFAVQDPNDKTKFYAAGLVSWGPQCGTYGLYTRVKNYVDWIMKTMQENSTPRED
T1 sequence (P09871 16-437 partner limits assumed): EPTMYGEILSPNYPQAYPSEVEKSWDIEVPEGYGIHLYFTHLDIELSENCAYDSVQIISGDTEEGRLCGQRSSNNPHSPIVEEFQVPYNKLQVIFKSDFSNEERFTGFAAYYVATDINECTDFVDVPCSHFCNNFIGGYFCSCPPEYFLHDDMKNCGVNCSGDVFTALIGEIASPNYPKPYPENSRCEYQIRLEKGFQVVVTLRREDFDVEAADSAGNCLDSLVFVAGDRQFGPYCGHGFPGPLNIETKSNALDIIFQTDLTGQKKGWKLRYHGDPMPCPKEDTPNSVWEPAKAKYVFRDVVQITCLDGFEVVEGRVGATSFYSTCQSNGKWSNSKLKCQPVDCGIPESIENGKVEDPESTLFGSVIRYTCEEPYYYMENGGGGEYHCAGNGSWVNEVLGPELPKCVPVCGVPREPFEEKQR
Assay: In vitro inhibition of C1s (Ki determination, C1s-catalyzed hydrolysis of Z-Gly-Arg-S-Bzl, DTNB readout)
Assay type: biochemical
Conditions: substrate Z-Gly-Arg-S-Bzl 45 μM, DTNB 200 μM, C1s 2.3 nM, pH 7.5, 37° C., absorbance at 405 nm

Ki, 6 to 23 nM:
C=Cc1ccc(-c2cccc(S(=O)(=O)c3cc(C(=N)N)sc3SC)c2)cc1 [Example 94, 5-methylsulfanyl-4-(4′-vinyl-biphenyl-3-sulfonyl)-thiophene-2-carboxamidine]
CCOc1cccc(-c2cccc(S(=O)(=O)c3cc(C(=N)N)sc3SC)c2)c1 [Example 95, 4-(3′-ethoxy-biphenyl-3-sulfonyl)-5-methylsulfanyl-thiophene-2-carboxamidine]
CSc1sc(C(=N)N)cc1S(=O)(=O)c1cccc(-c2c(C)cccc2C)c1 [Example 96, 4-(2′,6′-dimethyl-biphenyl-3-sulfonyl)-5-methylsulfanyl-thiophene-2-carboxamidine]
CSc1sc(C(=N)N)cc1S(=O)(=O)c1cccc(-c2cccc(C(C)C)c2)c1 [Example 98, 4-(3′-isopropyl-biphenyl-3-sulfonyl)-5-methylsulfanyl-thiophene-2-carboxamidine]
CSc1sc(C(=N)N)cc1S(=O)(=O)c1cccc(-c2cccc(C)c2C)c1 [Example 99, 4-(2′,3′-dimethyl-biphenyl-3-sulfonyl)-5-methylsulfanyl-thiophene-2-carboxamidine]
CSc1sc(C(=N)N)cc1S(=O)(=O)c1cccc(-c2cccc(Cl)c2Cl)c1 [Example 100, 4-(2′,3′-dichloro-biphenyl-3-sulfonyl)-5-methylsulfanyl-thiophene-2-carboxamidine]
CSc1sc(C(=N)N)cc1S(=O)(=O)c1cccc(-c2cccc(C(C)=O)c2)c1 [Example 101, 4-(3′-acetyl-biphenyl-3-sulfonyl)-5-methylsulfanyl-thiophene-2-carboxamidine]
CCOC(=O)c1cccc(-c2cccc(S(=O)(=O)c3cc(C(=N)N)sc3SC)c2)c1 [Example 102, 3′-(5-carbamimidoyl-2-methylsulfanyl-thiophene-3-sulfonyl)-biphenyl-3-carboxylic acid ethyl ester]
CSc1sc(C(=N)N)cc1S(=O)(=O)c1cccc(-c2cccc(C(=O)N(C)C)c2)c1 [Example 103, 3′-(5-carbamimidoyl-2-methylsulfanyl-thiophene-3-sulfonyl)-biphenyl-3-carboxylic acid dimethylamide]
CSc1sc(C(=N)N)cc1S(=O)(=O)c1cccc(-c2cccc(C(N)=O)c2)c1 [Example 104, 3′-(5-carbamimidoyl-2-methylsulfanyl-thiophene-3-sulfonyl)-biphenyl-3-carboxylic acid amide]
CSc1sc(C(=N)N)cc1S(=O)(=O)c1cccc(-c2ccc3[nH]cnc3c2)c1 [Example 106, 4-[3-(1H-benzoimidazol-5-yl)-benzenesulfonyl]-5-methylsulfanyl-thiophene-2-carboxamidine]
CSc1sc(C(=N)N)cc1S(=O)(=O)c1cccc(-c2ccccc2N)c1 [Example 107, 4-(2′-amino-biphenyl-3-sulfonyl)-5-methylsulfanyl-thiophene-2-carboxamidine]
CSc1sc(C(=N)N)cc1S(=O)(=O)c1cc(-c2ccccc2C)c2ncn(C)c2c1 [Example 108, 5-methylsulfanyl-4-(3-methyl-7-o-tolyl-3H-benzoimidazole-5-sulfonyl)-thiophene-2-carboxamidine trifluoroacetate]
CSc1sc(C(=N)N)cc1S(=O)(=O)c1cc(-c2ccccc2C)c2nc[nH]c2c1 [Example 110, 5-methylsulfanyl-4-(7-o-tolyl-3H-benzoimidazole-5-sulfonyl)-thiophene-2-carboxamidine trifluoroacetate]
COc1cccc(S(=O)(=O)c2cc(C(=N)N)sc2SC)c1 [Example 114, 4-(3-Methoxy-benzenesulfonyl)-5-methylsulfanyl-thiophene-2-carboxamidine hydrochloride HCl]
CSc1sc(C(=N)N)cc1S(=O)(=O)c1ccc(C)c(-c2ccccc2)c1 [Example 115, 4-(6-Methyl-biphenyl-3-sulfonyl)-5-methylsulfanyl-thiophene-2-carboxamidine trifluoroacetate]
CSc1sc(C(=N)N)cc1S(=O)(=O)c1cccc(Oc2ccccc2)c1 [Example 116, 5-Metylsulfanyl-4-(3-phenoxy-benzenesulfonyl)-thiophene-2-carboxamidine hydrochloride salt]
CSc1sc(C(=N)N)cc1S(=O)(=O)c1cccc(-c2ccccc2)c1 [Example 117, 4-(Biphenyl-3-sulfonyl)-5-methylsulfanyl-thiophene-2-carboxamidine trifluoroacetate]
CSc1sc(C(=N)N)cc1S(=O)(=O)c1cnc(Cl)c(Br)c1 [Example 118, 4-(5-Bromo-6-chloro-pyridine-3-sulfonyl)-5-methylsulfanyl-thiophene-2-carboxamidine]
CSc1sc(C(=N)N)cc1S(=O)(=O)c1cnc(N)c(Br)c1 [Example 119, 4-(6-Amino-5-bromo-pyridine-3-sulfonyl)-5-methylsulfanyl-thiophene-2-carboxamidine]
CSc1sc(C(=N)N)cc1S(=O)(=O)c1cnc(N)c(-c2ccccc2C)c1 [Example 121, 4-(6-Amino-5-o-tolyl-pyridine-3-sulfonyl)-5-methylsulfanyl-thiophene-2-carboxamidine]
CSc1sc(C(=N)N)cc1S(=O)(=O)c1cccc(-c2c(C)cc(Cl)cc2NC(=O)CCCS(C)(=O)=O)c1 [Example 135, N-[3′-(5-Carbamimidoyl-2-methylsulfanyl-thiophene-3-sulfonyl)-4-chloro-6-methyl-biphenyl-2-yl]-4-methanesulfonyl-butyramide trifluoroacetate]
CCCCCCNC(=N)Nc1ccc(-c2cccc(S(=O)(=O)c3cc(C(=N)N)sc3SC)c2)c(C)c1 [Example 136, 4-[4′-(N′-Hexyl-guanidino)-2′-methyl-biphenyl-3-sulfonyl]-5-methylsulfanyl-thiophene-2-carboxamidine trifluoroacetate]
CSc1sc(C(=N)N)cc1S(=O)(=O)c1cccc(-c2ccc(NC(=N)NCCCS(C)(=O)=O)cc2C)c1 [Example 171, 4-{4′-[N′-(3-Methanesulfonyl-propyl)-guanidino]-2′-methyl-biphenyl-3-sulfonyl}-5-methylsulfanyl-thiophene-2-carboxamidine trifluoroacetate]
CSc1sc(C(=N)N)cc1S(=O)(=O)c1cccc(-c2ccc(NC(=N)NCCCCCS(C)(=O)=O)cc2C)c1 [Example 173, 4-{4′-[N′-(5-Methanesulfonyl-pentyl)-guanidino]-2′-methyl-biphenyl-3-sulfonyl}-5-methylsulfanyl-thiophene-2-carboxamidine trifluoroacetate]
CSc1sc(C(=N)N)cc1S(=O)(=O)c1cccc(-c2c(C)cc(NC(=N)N)cc2NC(=O)NCCCCS(C)(=O)=O)c1 [Example 184, 4-{4′-Guanidino-2′-[3-(4-methanesulfonyl-butyl)-ureido]-6′-methyl-biphenyl-3-sulfonyl}-5-methylsulfanyl-thiophene-2-carboxamidine trifluoroacetate]
COc1cc(C)c(-c2cccc(S(=O)(=O)c3cc(C(=N)N)sc3SC)c2)c(COCC(=O)O)c1 [Example 192, [3′-(5-Carbamimidoyl-2-methylsulfanyl-thiophene-3-sulfonyl)-4-methoxy-6-methyl-biphenyl-2-ylmethoxy]-acetic acid trifluoroacetate]
CSc1sc(C(=N)N)cc1S(=O)(=O)c1cccc(-c2c(C)cccc2NC(=O)NCCNS(=O)(=O)c2ccccc2)c1 [Example 194, 4-{2′-[3-(2-Benzenesulfonylamino-ethyl)-ureido]-6′-methyl-biphenyl-3-sulfonyl}-5-methylsulfanyl-thiophene-2-carboxamidine trifluoroacetate]
CSc1sc(C(=N)N)cc1S(=O)(=O)c1cccc(-c2c(C)cccc2NC(=O)NCCNS(C)(=O)=O)c1 [Example 195, 4-{2′-[3-(2-Methanesulfonylamino-ethyl)-ureido]-6′-methyl-biphenyl-3-sulfonyl}-5-methylsulfanyl-thiophene-2-carboxamidine trifluoroacetate]
CSc1sc(C(=N)N)cc1S(=O)(=O)c1cccc(-c2c(C)cccc2NC(=O)NCCCc2ccccc2)c1 [Example 203, 4-{6′-Methyl-2′-[3-(3-phenyl-propyl)-ureido]-biphenyl-3-sulfonyl}-5-methylsulfanyl-thiophene-2-carboxamidine trifluoroacetate]
CSc1sc(C(=N)N)cc1S(=O)(=O)c1cccc(-c2c(C)cccc2NC(=O)NCCc2c[nH]c3ccccc23)c1 [Example 207, 4-(2′-{3-[2-(1H-Indol-3-yl)-ethyl]-ureido}-6′-methyl-biphenyl-3-sulfonyl)-5-methylsulfanyl-thiophene-2-carboxamidine trifluoroacetate]
